Laboratory results taken from PubChem BioAssay AID1259407 (Chemical Carcinogenesis Research Information System (CCRIS), 2018).
Activity calls are given as the source filed them. How the calls were made is not given here.

Test system: CCRIS mutagenicity, Ames/micronucleus/aberration tests
Test: CCRIS mutagenicity studies
[1] = Test System: AMES SALMONELLA TYPHIMURIUM, Strain/Indicator: TA100, Metabolic Activation: NONE, Method: STANDARD PLATE
[2] = Test System: AMES SALMONELLA TYPHIMURIUM, Strain/Indicator: TA98, Metabolic Activation: NONE, Method: STANDARD PLATE
[3] = Test System: AMES SALMONELLA TYPHIMURIUM, Strain/Indicator: TA98, Metabolic Activation: NONE, Method: PREINCUBATION
[4] = Test System: AMES SALMONELLA TYPHIMURIUM, Strain/Indicator: TA100, Metabolic Activation: NONE, Method: PREINCUBATION

Cc1ccc([N+](=O)[O-])c(S(=O)(=O)O)c1[N+](=O)[O-]
mutagenic call (End Point: In vitro chromosomal aberrations, Test System: V79 Chinese hamster fibroblasts, Metabolic Activation: None): inactive; negative | mutagenic call (Test System: Ames Salmonella typhimurium, Strain/Indicator: TA98, Metabolic Activation: None, Method: Standard plate): inactive; negative | mutagenic call (Test System: Ames Salmonella typhimurium, Strain/Indicator: TA98, Metabolic Activation: Rat, Liver, S-9, Method: Standard plate): inactive; negative | mutagenic call (Test System: Ames Salmonella typhimurium, Strain/Indicator: TA100, Metabolic Activation: None, Method: Standard plate): inactive; negative | mutagenic call (Test System: Ames Salmonella typhimurium, Strain/Indicator: TA100, Metabolic Activation: Rat, Liver, S-9, Method: Standard plate): inactive; negative

Cc1cc(N=Nc2ccccc2C)c(N)cc1N
mutagenic call (Test System: AMES SALMONELLA TYPHIMURIUM, Strain/Indicator: TA100, Metabolic Activation: HUMAN, LIVER, S-9, Method: PREINCUBATION): inactive; negative | mutagenic call (Test System: AMES SALMONELLA TYPHIMURIUM, Strain/Indicator: TA100, Metabolic Activation: RAT, LIVER, S-9, BETA-NAPHTHOFLAVONE, Method: PREINCUBATION): active; positive | mutagenic call (Test System: AMES SALMONELLA TYPHIMURIUM, Strain/Indicator: TA100, Metabolic Activation: RAT, LIVER, S-9, PHENOBARBITAL, Method: PREINCUBATION): active; positive | mutagenic call (Test System: AMES SALMONELLA TYPHIMURIUM, Strain/Indicator: TA100, Metabolic Activation: RAT, LIVER, S-9, Method: PREINCUBATION): active; positive | mutagenic call (Test System: UDS RODENT HEPATOCYTES, Strain/Indicator: THY INCORP, Metabolic Activation: NONE, Method: AUTORADIOGRAPHY): active; positive

COc1ccc(CNC(=O)C(C)Br)cc1 (stereo not drawn)
mutagenic call [1]: active; positive

N#[N+]c1ccc(CO)cc1
mutagenic call (Test System: AMES SALMONELLA TYPHIMURIUM, Strain/Indicator: TA102, Metabolic Activation: NONE, Method: STANDARD PLATE): active; positive | mutagenic call (Test System: CHINESE HAMSTER V-79, Strain/Indicator: V-79/6-THIOGUANINE, Metabolic Activation: NONE): active; positive

CCC1=C(C(=O)OC)C(=O)OC1C (stereo not drawn)
mutagenic call (Test System: AMES SALMONELLA TYPHIMURIUM, Strain/Indicator: TA98, Metabolic Activation: NONE, Method: DISK ASSAY): inactive; negative | mutagenic call [2]: active; positive | mutagenic call (Test System: AMES SALMONELLA TYPHIMURIUM, Strain/Indicator: TA98, Metabolic Activation: RAT, LIVER, S-9, AROCLOR 1254, Method: DISK ASSAY): inactive; negative | mutagenic call (Test System: AMES SALMONELLA TYPHIMURIUM, Strain/Indicator: TA98, Metabolic Activation: RAT, LIVER, S-9, AROCLOR 1254, Method: STANDARD PLATE): active; positive

CC(C)c1ccc(/C=C/c2ccc([N+](=O)[O-])cc2)cc1
mutagenic call [2]: inactive; negative | mutagenic call (Test System: AMES SALMONELLA TYPHIMURIUM, Strain/Indicator: TA98, Metabolic Activation: RAT, LIVER, S-9, AROCLOR, Method: STANDARD PLATE): active; positive | mutagenic call [1]: inactive; negative | mutagenic call (Test System: AMES SALMONELLA TYPHIMURIUM, Strain/Indicator: TA100, Metabolic Activation: RAT, LIVER, S-9, AROCLOR, Method: STANDARD PLATE): active; positive

CCc1cccc(CC)c1NC(=O)CO
mutagenic call [3]: inactive; negative | mutagenic call (Test System: AMES SALMONELLA TYPHIMURIUM, Strain/Indicator: TA98, Metabolic Activation: RAT, LIVER, MICROSOMES, PHENOBARBITAL, Method: PREINCUBATION): inactive; negative | mutagenic call [4]: inactive; negative | mutagenic call (Test System: AMES SALMONELLA TYPHIMURIUM, Strain/Indicator: TA100, Metabolic Activation: RAT, LIVER, MICROSOMES, PHENOBARBITAL, Method: PREINCUBATION): active; positive

CCCCCCCCCCCC(=O)N(CCO)CCO
mutagenic call (End Point: IN VITRO CHROMOSOMAL ABERRATIONS, Test System: CHO-LB CELLS, Metabolic Activation: NONE): inactive; negative | mutagenic call (End Point: IN VITRO CHROMOSOMAL ABERRATIONS, Test System: CHO-LB CELLS, Metabolic Activation: RAT, LIVER, S-9, AROCLOR 1254): inactive; negative | mutagenic call (Test System: AMES SALMONELLA TYPHIMURIUM, Strain/Indicator: TA97, Metabolic Activation: HAMSTER, LIVER, S-9, AROCLOR 1254 (10%), Method: PREINCUBATION): inactive; negative | mutagenic call (Test System: AMES SALMONELLA TYPHIMURIUM, Strain/Indicator: TA97, Metabolic Activation: HAMSTER, LIVER, S-9, AROCLOR 1254 (30%), Method: PREINCUBATION): inactive; negative | mutagenic call (Test System: AMES SALMONELLA TYPHIMURIUM, Strain/Indicator: TA97, Metabolic Activation: NONE, Method: PREINCUBATION): inactive; negative | mutagenic call (Test System: AMES SALMONELLA TYPHIMURIUM, Strain/Indicator: TA97, Metabolic Activation: RAT, LIVER, S-9, AROCLOR 1254 (10%), Method: PREINCUBATION): inactive; negative | mutagenic call (Test System: AMES SALMONELLA TYPHIMURIUM, Strain/Indicator: TA97, Metabolic Activation: RAT, LIVER, S-9, AROCLOR 1254 (30%), Method: PREINCUBATION): inactive; negative | mutagenic call (Test System: AMES SALMONELLA TYPHIMURIUM, Strain/Indicator: TA98, Metabolic Activation: HAMSTER, LIVER, S-9, AROCLOR 1254 (10%), Method: PREINCUBATION): inactive; negative | mutagenic call (Test System: AMES SALMONELLA TYPHIMURIUM, Strain/Indicator: TA98, Metabolic Activation: HAMSTER, LIVER, S-9, AROCLOR 1254 (30%), Method: PREINCUBATION): inactive; negative | mutagenic call [3]: inactive; negative | mutagenic call (Test System: AMES SALMONELLA TYPHIMURIUM, Strain/Indicator: TA98, Metabolic Activation: RAT, LIVER, S-9, AROCLOR 1254 (10%), Method: PREINCUBATION): inactive; negative | mutagenic call (Test System: AMES SALMONELLA TYPHIMURIUM, Strain/Indicator: TA98, Metabolic Activation: RAT, LIVER, S-9, AROCLOR 1254 (30%), Method: PREINCUBATION): inactive; negative | mutagenic call (Test System: AMES SALMONELLA TYPHIMURIUM, Strain/Indicator: TA100, Metabolic Activation: HAMSTER, LIVER, S-9, AROCLOR 1254 (10%), Method: PREINCUBATION): inactive; negative | mutagenic call (Test System: AMES SALMONELLA TYPHIMURIUM, Strain/Indicator: TA100, Metabolic Activation: HAMSTER, LIVER, S-9, AROCLOR 1254 (30%), Method: PREINCUBATION): inactive; negative | mutagenic call [4]: inactive; negative | mutagenic call (Test System: AMES SALMONELLA TYPHIMURIUM, Strain/Indicator: TA100, Metabolic Activation: RAT, LIVER, S-9, AROCLOR 1254 (10%), Method: PREINCUBATION): inactive; negative | mutagenic call (Test System: AMES SALMONELLA TYPHIMURIUM, Strain/Indicator: TA100, Metabolic Activation: RAT, LIVER, S-9, AROCLOR 1254 (30%), Method: PREINCUBATION): inactive; negative | mutagenic call (Test System: AMES SALMONELLA TYPHIMURIUM, Strain/Indicator: TA1535, Metabolic Activation: HAMSTER, LIVER, S-9, AROCLOR 1254 (10%), Method: PREINCUBATION): inactive; negative | mutagenic call (Test System: AMES SALMONELLA TYPHIMURIUM, Strain/Indicator: TA1535, Metabolic Activation: HAMSTER, LIVER, S-9, AROCLOR 1254 (30%), Method: PREINCUBATION): inactive; negative | mutagenic call (Test System: AMES SALMONELLA TYPHIMURIUM, Strain/Indicator: TA1535, Metabolic Activation: NONE, Method: PREINCUBATION): inactive; negative | mutagenic call (Test System: AMES SALMONELLA TYPHIMURIUM, Strain/Indicator: TA1535, Metabolic Activation: RAT, LIVER, S-9, AROCLOR 1254 (10%), Method: PREINCUBATION): inactive; negative | mutagenic call (Test System: AMES SALMONELLA TYPHIMURIUM, Strain/Indicator: TA1535, Metabolic Activation: RAT, LIVER, S-9, AROCLOR 1254 (30%), Method: PREINCUBATION): inactive; negative

C/C=C(\Cl)C1=CC(=O)[C@]23C[C@H]2C(C)(C)O[C@]3(O)C1=O
mutagenic call (Test System: AMES SALMONELLA TYPHIMURIUM, Strain/Indicator: TA97, Metabolic Activation: NONE): inactive; negative | mutagenic call (Test System: AMES SALMONELLA TYPHIMURIUM, Strain/Indicator: TA98, Metabolic Activation: NONE): inactive; negative | mutagenic call (Test System: AMES SALMONELLA TYPHIMURIUM, Strain/Indicator: TA100, Metabolic Activation: NONE): inactive; negative | mutagenic call (Test System: AMES SALMONELLA TYPHIMURIUM, Strain/Indicator: TA102, Metabolic Activation: NONE): active; positive

CCCCCCCCCCOC[N+](C)(C)Cc1ccccc1
mutagenic call (Test System: BACILLUS SUBTILIS, Strain/Indicator: H17/REC, Metabolic Activation: NONE, Method: STANDARD PLATE): inactive; negative | mutagenic call (Test System: BACILLUS SUBTILIS, Strain/Indicator: M45, Metabolic Activation: NONE, Method: STANDARD PLATE): inactive; negative
